The source made the active and inactive calls. The rule behind the calls is not given here.

One may read the ED50 as the dose at which the effect has come halfway, by size or by number of responders. By IC50 is commonly meant the concentration needed to halve the response being measured. High values mean a need for much substance, low ones inhibition by little substance.

For experiment [1], the species on record is Mus musculus. The experiment can be described thus: (§1) Dose which protected 50 % of the mice from a tonic convulsion. In kind it is functional.
Experiment [2] is filed under the species Mus musculus. Described as §1. In kind it is functional. The source holds these as a separate data set.
The target in experiment [3] is Glutamate NMDA receptor. As to the kind of experiment: In vitro binding affinity towards NMDA glutamate receptor using [3H]5,7-dichlorokynurenate as ligand on rat cortical membrane preparations.
The subject of experiment [4] is Mus musculus. The experiment can be described thus: Dose which protected 50 % of the mice from a tonic convulsion, pretreatment was before 3 hr by i.v. administration in MES test. The experiment is classed as functional. As to conditions: iv.
Experiment [5] has as its target T1, Glutamate receptor ionotropic, AMPA (Rattus norvegicus, UniProt P19490+P19491+P19492+P19493).
Description: Affinity towards Ionotropic glutamate receptor AMPA using [3H]AMPA as ligand on rat cortical membrane preparations
Experiment [6] deals with Mus musculus. The experiment can be described thus: Dose which protected 50 % of the mice from a tonic convulsion, pretreatment was before 3 hr by i.v. administration in MES test at 40 mg/kg (Inactive). The experiment is classed as functional, organism-based. Set-up: dose 40 mg/kg.
For experiment [7], the target named is T1, Glutamate receptor ionotropic, AMPA. This is another data set of the same source.
Description: Compound was evaluated for potent antagonist intrinsic activity against Ionotropic glutamate receptor AMPA

In the case of `O=C(O)Cc1cccc2c1Cc1c-2nc(O)c2nc(CP(=O)(O)O)cn12`, the ED50 is 4.7 mg/kg in experiment [1], 2.5 mg/kg in experiment [2] and 22.4 mg/kg in experiment [4]. The IC50 is over 10000 nM in experiment [3] and 147 nM in experiment [5].
The like results for `O=C(O)/C=C/c1cn2c3c(nc(O)c2n1)-c1cccc(CC(=O)O)c1C3` were, in that order, 2.2 mg/kg, 3.8 mg/kg, 25.6 mg/kg, over 10000 nM and 30 nM.
`O=C(Cc1cccc2c1Cc1c-2nc(O)c2nc(C(=O)O)cn12)NS(=O)(=O)c1ccccc1`: the IC50 in experiment [3] was found to be 2000 nM; in experiment [5], 139 nM.
For the molecule `O=C(O)Cc1cccc2c1Cc1c-2nc(O)c2nc(-c3ccc(C(=O)O)cc3)cn12`, the ED50 came to 5 mg/kg in experiment [1], 5 mg/kg in experiment [2] and 15 mg/kg in experiment [4]. The values for the IC50 in experiment [3] and in experiment [5] were 5800 nM and 12 nM, respectively.
Consider `O=C(O)CCc1cn2c3c(nc(O)c2n1)-c1cccc(CC(=O)O)c1C3`, for which the ED50 in experiment [1] worked out at 1.9 mg/kg. Besides, the IC50 in experiment [3] turned out to be 1600 nM; in experiment [5], 31 nM.
`O=C(O)Cc1cccc2c1Cc1c-2nc(O)c2nc(-c3ccccc3C(=O)O)cn12`: the values for the IC50 in experiment [3] and in experiment [5] were 6100 nM and 100 nM, respectively.
As to `O=C(O)Cc1cccc2c1Cc1c-2nc(O)c2nc(P(=O)(O)O)cn12`, the ED50 in experiment [1] worked out at 3.5 mg/kg; in experiment [2], 2.9 mg/kg; in experiment [4], 3.5 mg/kg. In addition, the IC50 in experiment [3] is over 10000 nM; in experiment [5] it was 150 nM.
With `O=C(O)c1cn2c3c(nc(O)c2n1)-c1cccc(Cc2nn[nH]n2)c1C3`, in experiment [6], the ED50 entry was “inactive”. Moreover, the 50% effective dose (ED50) in experiment [1] was determined as 2.3 mg/kg; in experiment [2], 2 mg/kg. The IC50 in experiment [3] was 537 nM; in experiment [5] it was 15 nM.
Take `CNC(=O)Cc1cccc2c1Cc1c-2nc(O)c2nc(C(=O)O)cn12`: the ED50 was 10 mg/kg in experiment [1], 5 mg/kg in experiment [2] and over 20 mg/kg in experiment [4]. The IC50 in experiment [3] was found to be 328 nM; in experiment [5], 189 nM.
In experiment [2], `O=C(O)[C@@H]1C[C@H]2C[C@@H](CCc3nn[nH]n3)CC[C@H]2CN1` [TEZAMPANEL ANHYDROUS] showed a 50% effective dose (ED50) of 3.4 mg/kg.
On to `O=P(O)(O)c1cn2c3c(nc(O)c2n1)-c1cccc(Cc2nn[nH]n2)c1C3`, for which the IC50 in experiment [7] was determined as 6 nM; in experiment [3], 2360 nM; in experiment [5], 13 nM. The results for the ED50 in experiment [1], in experiment [2] and in experiment [4] were 1 mg/kg, 0.8 mg/kg and 3.5 mg/kg, respectively.
With `CS(=O)(=O)NC(=O)Cc1cccc2c1Cc1c-2nc(O)c2nc(C(=O)O)cn12`, the IC50 is 1200 nM in experiment [3] and 235 nM in experiment [5].
As for `O=C(O)Cc1cccc2c1Cc1c-2nc(O)c2nc(C(=O)O)cn12`, in experiment [4], the ED50 stood at 25.6 mg/kg.
As for `O=C(O)Cc1cn2c3c(nc(O)c2n1)-c1cccc(CC(=O)O)c1C3`, the ED50 in experiment [2] is 0.5 mg/kg; in experiment [4] it was 28 mg/kg.
`O=C(O)c1cn2c3c(nc(O)c2n1)-c1cccc(CP(=O)(O)O)c1C3`: it took a dose of 5.6 mg/kg to reach the 50% effect level in experiment [1] (ED50). Also, the IC50 in experiment [3] was over 10000 nM; in experiment [5] it was 586 nM.
Regarding `O=C(O)Cc1cccc2c1Cc1c-2nc(O)c2nc(-c3cccc(C(=O)O)c3)cn12`, the ED50 in experiment [1] is 8.6 mg/kg. Moreover, the IC50 in experiment [3] is 7200 nM; in experiment [5], 40 nM.
Regarding `O=c1[nH]c2cc(-n3ccnc3)c([N+](=O)[O-])cc2[nH]c1=O` [YM-90K], in experiment [4], the ED50 was over 40 mg/kg.
